Patent publication US8536332B2, “Modulating signal transduction pathways with substituted pyridol [2,3-b] pyrazines” (Aeterna Zentaris GmbH, priority 2007, dated 2013)

Assays:
p38alpha = p38alpha (Homo sapiens, UniProt Q16539); assay: Cell-free kinase assay (ALPHA technology) p38alpha; assay type: biochemical; conditions: 10 μM ATP
Description: (§1) The inhibitory effect of the compounds of the invention was tested on various human serine/threonine kinases, tyrosine kinases and lipid kinases in enzymatic assays. Recombinant human kinases, for example PI3Kalpha, -beta, -gamma, -delta, Erk2, p38alpha, p38gamma, Jnk1, Jnk2 and others were used, in some cases as full-length kinases, in some cases as truncated fragments—but at least consisting of the functional kinase domains. The commercial kinase proteins (Proqinase, Upstate) were used as recombinant fusion proteins with GST (glutathione S-transferase) tag or His tag. Depending on the substrate type, the different kinase reactions were quantified by suitable ALPHA™ beads (PerkinElmer).
(§2) The kinase assays for PI3K and Erk are described in detail and selected test results are cited below. […] Subsequently, the kinase reaction was stopped by adding the ALPHA bead mix (10 μg/ml, #6760603/PerkinElmer), preincubated with 1 nM GST:Grp1 fusion protein (Upstate) and […] (#C-39B6/Echelon) in 50 mM Hepes, 50 mM NaCl, 50 mM EDTA and 0.1% BSA, and left to stand overnight. • b) Erk2-ALPHA: The test substance, 0.625 ng of Erk2 (#14-173, Upstate), 10 μM ATP and 15 nM biotinylated MBP (myelin basic protein) substrate were incubated on a 384-well Optiplate (Perkin Elmer) in a volume of 15 μl for 1 h in 25 mM Tris, 10 mM MgCl2, 0.1% Tween-20, 100 μM NaVO4, 2 mM DTT at pH 7.5. The kinase reaction was stopped by adding 10 μl of the ALPHA bead mix (10 μg/ml, #6760617/PerkinElmer), pre-incubated with anti-phospho MBP antibody (320 pM, #05-429/Upstate), in 25 mM Tris, 200 mM NaCl, 100 mM EDTA and 0.3% BSA, and left to stand overnight.
(§3) The luminiscence was detected the next morning in a Fusion™ alpha instrument (Perkin Elmer).
(§4) The calculation of % inhibition values per substance concentration was done by means of the following formula from the raw data determined in the Fusion™ alpha:
(§5) The controls were determined 8 fold and the substance samples 2 fold. 0% control contained neither any ATP nor any substrate. The 100% control contained no test substance. The IC50 values were determined with GraphPadPrism.

Phospho-p90RSK (S380) = assay: Cellular substrate phosphorylation (Western blotting), Erk →pRsk; assay type: cell-based, human; conditions: for inhibition at 50 µM: Homo sapiens, 5 h; for inhibition of phospho-Rsk / Raf-Mek-Erk pathway, in words: Western blotting, concentrations of 5-50 μM
Description: (§6) This method enables a statement of whether the kinase modulator investigated achieves the desired effect in a cellular context too, i.e., in this case, a substrate protein downstream of the target kinase is examined for its phosphorylation status. To this end, the cells incubated with substance are lysed and the overall protein is separated on a reducing polyacrylamide gel. Subsequently, the proteins are transferred to a PVDF membrane by Western blotting and the substrate bands sought are made visible with specific antibodies and a suitable detection method. The substrate proteins down-stream of the target kinases are detected simultaneously with an anti-phospho antibody which is specific in each case and a total antibody which recognizes the substrate total protein. The duplex technology of the ODYSSEY imager (LiCOR) enables this simultaneous measurement. The intensity of the total substrate bands is employed to normalize and quantify the phosphorylation inhibition or activation.
(§7) Suitable tumor cell lines (e.g. BxPC3, Hct116 or MDA MB468) were seeded into 6-well microtitre plates in a defined cell count (e.g. 350 000 cells/well for BxPC3 and Hct116) in the particular standard complete media and then incubated overnight at 37° C., 5% CO2 and 95% air humidity. Afterwards, the cells were incubated for 24 h under serum-reduced conditions, i.e. in the particular medium except at only 0.25% serum. The test substances were made up as stock solutions (10 mM) in DMSO and incubated with the cells at final concentrations of 5, 15.8 and 50 μM for 5 h. This was followed by cell lysis in 25 mM Tris, 150 mM NaCl, 10 mM sodium pyrophosphate, 2 mM EGTA, 25 mM beta-glycerophosphate, 25 mM NaF, 10% glycerol, 0.75% NP-40, 100 μM NaVO4 buffer. After protein quantification using the BCA (bicinchonic acid protein assay kit, Sigma) assay, amounts of protein of about 20 μg per track were separated on a Lämmli polyacrylamide gel and then transferred onto a PVDF membrane (Millipore) by semi-dry Western blotting at 0.8 mA/cm^2 for 1 h. This was followed by prehybridization of the membrane for 1 hour in I-block reagent (Applied Biosystems) and overnight simultaneous incubation with the specific antibodies. […] After the membrane had been washed, the secondary antibodies were incubated with anti-rabbit IR Dye 800 (#611-732-127, Rockland) for the phospho antibodies and anti-goat Alexa Fluor 680 (#A-21081, […]) for the total protein antibodies. After incubation for 30 min at room temperature in the dark, the hybridization of the detection antibody was detected on the membrane by scanning in an ODYSSEY imager (LiCOR).

PI3Kalpha = biological target: T1, PI3Kalpha (Homo sapiens, UniProt P42336); assay: Cell-free kinase assay PI3K-ALPHA; assay type: biochemical
T1 construct: purchased Upstate #14-602
Description: as §1, §2, §3, §4, §5

Jnk1 + Jnk2 = tested on: T2, Jnk1 + Jnk2; assay: Cell-free kinase assay (ALPHA technology) Jnk1 + Jnk2; assay type: biochemical, human; conditions: 10 μM ATP
T2 construct: fused on or other part: GST tag or His tag (commercial recombinant fusion proteins from Proqinase or Upstate)
Description: as §1, §2, §3, §4, §5

Hct116 = assay: XTT assay, anti-proliferative activity, Hct116; assay type: cell-based; conditions: Homo sapiens, HCT-116; 45 h incubation
Description: (§8) The principle of this test is based on the intracellular reduction of the tetrazolium dye XTT (sodium 3′-[1-(phenylaminocarbonyl)-3,4-tetrazolium]bis(4-methoxy-6-nitro)benzenesulphonic acid, Sigma) to a formazan dye by mitochondrial dehydrogenases. The dye is formed only by metabolically active cells. Its photometrically measurable intensity is a quantitative indicator for the presence of living cells. The reduction in the dye formation as a result of incubation of the cells with substances serves as a parameter for the anti-proliferative activity.
(§9) The tumour cell lines (ATCC) were seeded in 96-well microtitre plates in a defined cell count (5000 cells/well for Hct116; 10000 cells/well for MDA MB468), and incubated overnight at 37° C., 5% CO2 and 95% air humidity. The test substances were made up as stock solutions (10 mM) in DMSO. […] The cell plates were then incubated for 45 h at 37° C., 5% CO2 and 95% air humidity.
(§10) For the detection reaction, the XTT substrate was mixed with PMS (N-methyldibenzopyrazine methylsulphate, Sigma) and added to the cells, to result in a final concentration of 325 μg of XTT/ml and 2.5 μg PMS/ml. The mixture was then incubated for 3 h at 37° C., 95% air humidity. Subsequently the formazan salt formed by cellular dehydrogenases was quantified at an absorption of 490 nm.
(§11) The evaluation of the % inhibition values was done by means of the following formula from the values for the optical densities measured in each case at 490 nm:
(§12) The controls were determined 8 fold, the substance samples 2 fold. 0% control contained no cells and the 100% control contained no test substance. The EC50 values were determined with GraphPadPrism.

Phospho-Akt (Ser 473) = assay: Cellular substrate phosphorylation (Western blotting), PI3K →pAkt; assay type: cell-based, human; conditions: for inhibition at 50 µM: Homo sapiens, 5 h; for inhibition of cellular phospho-Akt / PI3K-Akt pathway, in words: Western blotting, concentrations of 5-50 μM
Description: as §6, §7

[1] = Cell-free kinase assay Erk2-ALPHA; assay type: biochemical, human; conditions: cell-free kinase assay; MAPK = Erk2, p38alpha, Jnk1+Jnk2 of Table 1
Description: as §1, §2, §3, §4, §5

Erk2 = biological target: T3, Erk2 (Mus musculus, UniProt P63085); assay: Cell-free kinase assay Erk2-ALPHA; assay type: biochemical, human; conditions: 10 μM ATP
T3 construct: purchased Upstate #14-173
Description: as §1, §2, §3, §4, §5

MDA-MB468 = assay: XTT assay, anti-proliferative activity, MDA-MB468; assay type: cell-based; conditions: Homo sapiens, MDA-MB-468; 45 h incubation
Description: as §8, §9, §10, §11, §12

p110alpha H107R = conditions: cited from earlier work

T1 sequence (P42336 whole entry): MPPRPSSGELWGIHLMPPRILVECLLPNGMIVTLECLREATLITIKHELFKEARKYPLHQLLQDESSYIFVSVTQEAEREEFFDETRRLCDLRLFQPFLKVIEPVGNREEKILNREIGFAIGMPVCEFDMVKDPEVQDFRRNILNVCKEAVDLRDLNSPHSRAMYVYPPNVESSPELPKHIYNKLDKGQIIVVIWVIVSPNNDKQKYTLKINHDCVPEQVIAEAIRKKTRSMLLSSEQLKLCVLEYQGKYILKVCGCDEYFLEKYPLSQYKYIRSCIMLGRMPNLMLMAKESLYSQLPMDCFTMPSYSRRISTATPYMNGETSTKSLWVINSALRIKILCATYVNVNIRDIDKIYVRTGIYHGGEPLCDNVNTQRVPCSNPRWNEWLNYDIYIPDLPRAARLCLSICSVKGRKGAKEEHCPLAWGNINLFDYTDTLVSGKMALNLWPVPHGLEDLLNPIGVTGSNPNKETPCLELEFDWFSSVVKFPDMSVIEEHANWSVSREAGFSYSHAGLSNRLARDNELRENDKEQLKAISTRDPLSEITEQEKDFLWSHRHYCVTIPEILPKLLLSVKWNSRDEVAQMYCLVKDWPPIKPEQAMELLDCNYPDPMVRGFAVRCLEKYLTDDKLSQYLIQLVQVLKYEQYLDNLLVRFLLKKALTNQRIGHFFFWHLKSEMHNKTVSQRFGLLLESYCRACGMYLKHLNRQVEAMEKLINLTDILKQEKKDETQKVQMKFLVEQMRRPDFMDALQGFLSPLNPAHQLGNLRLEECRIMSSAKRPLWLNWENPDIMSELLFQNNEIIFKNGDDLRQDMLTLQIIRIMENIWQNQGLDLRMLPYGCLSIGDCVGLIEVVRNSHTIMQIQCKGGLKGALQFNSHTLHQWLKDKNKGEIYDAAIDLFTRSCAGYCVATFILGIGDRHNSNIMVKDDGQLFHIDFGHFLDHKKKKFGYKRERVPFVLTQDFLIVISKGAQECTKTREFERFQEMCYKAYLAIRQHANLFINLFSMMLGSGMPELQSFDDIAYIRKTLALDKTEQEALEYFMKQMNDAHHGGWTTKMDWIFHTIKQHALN
T1 sequence (P27986 whole entry partner): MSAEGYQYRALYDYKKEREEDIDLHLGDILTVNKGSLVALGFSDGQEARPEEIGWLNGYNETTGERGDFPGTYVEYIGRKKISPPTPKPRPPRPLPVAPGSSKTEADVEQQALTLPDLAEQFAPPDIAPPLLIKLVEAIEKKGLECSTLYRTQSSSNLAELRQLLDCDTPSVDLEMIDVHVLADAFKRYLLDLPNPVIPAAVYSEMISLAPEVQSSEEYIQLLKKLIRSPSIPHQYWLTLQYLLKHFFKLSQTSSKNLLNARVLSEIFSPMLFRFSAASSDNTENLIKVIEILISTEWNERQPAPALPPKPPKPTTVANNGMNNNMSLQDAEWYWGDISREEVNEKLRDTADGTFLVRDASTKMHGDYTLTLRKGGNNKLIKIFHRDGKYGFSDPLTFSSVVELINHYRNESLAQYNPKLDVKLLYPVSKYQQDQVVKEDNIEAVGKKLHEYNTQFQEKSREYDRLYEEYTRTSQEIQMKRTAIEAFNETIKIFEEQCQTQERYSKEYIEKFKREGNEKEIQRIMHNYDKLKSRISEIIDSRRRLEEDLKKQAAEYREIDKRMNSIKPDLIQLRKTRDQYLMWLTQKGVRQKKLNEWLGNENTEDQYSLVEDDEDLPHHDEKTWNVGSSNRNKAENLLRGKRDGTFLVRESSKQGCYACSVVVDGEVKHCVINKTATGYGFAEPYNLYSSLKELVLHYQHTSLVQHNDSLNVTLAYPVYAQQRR
T3 sequence (P63085 whole entry): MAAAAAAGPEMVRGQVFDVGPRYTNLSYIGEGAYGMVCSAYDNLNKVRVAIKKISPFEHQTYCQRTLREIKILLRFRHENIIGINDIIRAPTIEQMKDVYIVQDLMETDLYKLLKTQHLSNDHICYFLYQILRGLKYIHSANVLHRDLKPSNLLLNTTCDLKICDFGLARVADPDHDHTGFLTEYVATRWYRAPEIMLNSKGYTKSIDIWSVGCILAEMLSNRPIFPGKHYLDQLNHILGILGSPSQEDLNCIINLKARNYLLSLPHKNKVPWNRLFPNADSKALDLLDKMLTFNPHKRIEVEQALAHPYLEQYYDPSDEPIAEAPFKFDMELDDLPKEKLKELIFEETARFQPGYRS
Chain of p38alpha (Q16539 whole entry, the tested form may be a part): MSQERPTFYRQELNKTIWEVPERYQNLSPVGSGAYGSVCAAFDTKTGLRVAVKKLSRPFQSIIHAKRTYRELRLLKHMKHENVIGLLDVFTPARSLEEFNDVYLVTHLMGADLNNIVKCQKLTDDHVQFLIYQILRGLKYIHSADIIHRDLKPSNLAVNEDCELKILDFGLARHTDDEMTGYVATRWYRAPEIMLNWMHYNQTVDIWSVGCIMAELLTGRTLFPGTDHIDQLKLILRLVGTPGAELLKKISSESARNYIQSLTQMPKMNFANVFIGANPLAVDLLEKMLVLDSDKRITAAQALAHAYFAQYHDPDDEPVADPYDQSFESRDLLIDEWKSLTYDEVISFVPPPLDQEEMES

Compound | IC50 (p38alpha) [µM] | inhibition at 50 µM (Phospho-p90RSK (S380)) [%] | inhibition of phospho-Rsk / Raf-Mek-Erk pathway, in words (Phospho-p90RSK (S380)) | melting point [°C] | PI3K inhibition, in words (PI3Kalpha) | IC50 (Jnk1 + Jnk2) [µM] | EC50 (Hct116) [µM] | inhibition at 50 µM (Phospho-Akt (Ser 473)) [%] | inhibition of cellular phospho-Akt / PI3K-Akt pathway, in words (Phospho-Akt (Ser 473)) | Erk2 / MAPK inhibition, in words [1] | IC50 (Erk2) [µM] | EC50 (MDA-MB468) [µM] | IC50 (p110alpha H107R) [nM]
CCNC(=O)Nc1ccc2ncc(Nc3cccc(O)c3)nc2n1 [Compound 56, 1-Ethyl-3-[3-(3-hydroxy-phenylamino)-pyrido[2,3-b]pyrazin-6-yl]-urea] | < 10 | 0 | do not block the Raf-Mek-Erk pathway | 270 to 273 | PI3K inhibition | > 10 | < 10 | 100 | cellular PI3K selectivity | no or only moderate MAPK inhibition | < 10 | < 5 | –
CCNC(=O)Nc1ccc2ncc(-c3ccc(OC)c(O)c3)nc2n1 [Compound 46, 1-Ethyl-3-[3-(3-hydroxy-4-methoxy-phenyl)-pyrido[2,3-b]pyrazin-6-yl]-urea] | > 100 | 100 | inhibit both | > 270 | inhibition of PI3K | < 1 | < 10 | 40 | inhibit both | inhibition of PI3K and Erk2 | < 0.5 | < 10 | –
CCNC(=O)Nc1ccc2ncc(Nc3ccccc3O)nc2n1 [Compound 55, 1-Ethyl-3-[3-(2-hydroxy-phenylamino)-pyrido[2,3-b]pyrazin-6-yl]-urea] | < 10 | 0 | do not block the Raf-Mek-Erk pathway | 243 to 246 | PI3K inhibition | > 100 | < 5 | 90 | cellular PI3K selectivity | no or only moderate MAPK inhibition | > 100 | < 5 | –
Cn1c(=O)n(-c2ccc(C(C)(C)C#N)cc2)c2c3cc(-c4cnc5ccccc5c4)ccc3ncc21 [BEZ-235] | – | – | – | – | – | – | – | – | – | – | – | – | 18
CCNC(=O)Nc1ccc2ncc(-c3ccc(OC(C)=O)c(OC)c3)nc2n1 [Compound 54, Acetic acid 4-[6-(3-ethyl-ureido)-pyrido[2,3-b]pyrazin-3-yl]-2-methoxy-phenyl ester] | > 100 | 90 | inhibit both | 227 to 229 | inhibition of PI3K | < 31.6 | < 5 | 100 | inhibit both | inhibition of PI3K and Erk2 | < 0.5 | < 5 | –
CCNC(=O)Nc1ccc2ncc(Nc3ccc(O)c(C(=O)OC)c3)nc2n1 [Compound 50, 5-[6-(3-Ethyl-ureido)-pyrido[2,3-b]-pyrazin-3-ylamino]-2-hydroxy-benzoic acid methyl ester] | > 100 | 0 | do not block the Raf-Mek-Erk pathway | 195 to 200 | PI3K inhibition | > 100 | < 5 | 100 | cellular PI3K selectivity | no or only moderate MAPK inhibition | > 100 | < 10 | –
CCNC(=O)Nc1ccc2ncc(Nc3cccc(OC(F)F)c3)nc2n1 [Compound 73, 1-[3-(3-Difluoromethoxy-phenylamino)-pyrido[2,3-b]pyrazin-6-yl]-3-ethyl-urea] | > 10 | – | – | – | PI3K inhibition | > 100 | < 5 | – | – | no or only moderate MAPK inhibition | > 100 | < 5 | –
CNC(=S)Nc1cnc2ccc(-c3ccc(O)c(OC)c3)nc2n1 [Compound 526, 1-[6-(4-Hydroxy-3-methoxy-phenyl)-pyrido[2,3-b]pyrazin-3-yl]-3-methyl-thiourea] | < 50 | – | – | 279 to 280 | – | > 100 | < 5 | – | – | – | > 100 | < 1 | –
CCNC(=O)Nc1cnc2ccc(-c3ccc(O)c(OC)c3)nc2n1 [Compound 5, 1-Ethyl-3-[6-(4-hydroxy-3-methoxy-phenyl)-pyrido[2,3-b]pyrazin-3-yl]-urea] | > 100 | 0 | phospho-Rsk is not inhibited | – | low IC50 values against PI3K | > 10 | < 2 | 100 | total inhibition of cellular phospho-Akt at compound concentrations <50 μM | – | > 100 | < 1 | –
